From patent US20230355581A1, “METHODS OF TREATMENT FOR MELANOMA” (THE BOARD OF REGENTS OF THE UNVERSITY OF TEXAS SYSTEM, priority 2020, published 2023)
“Also recorded” adds a separate entry of the source.

What was measured:
B16BL6 melanoma cells = experiment: 3D collagen culture viability dose response, B16BL6; type: cell-based, murine; details: B16BL6, 3D collagen matrix
Procedure: Y-axis is the viability ratio where 1=100% viability, and 0=0% viability. The lines are non-linear fits, which are used to show the best fit curves. Those same fits are also used to calculate IC50 values. RMIC (where applicable) and DMSO are indicated as separate dots.
FIG. 1 panels A-F show the effect of SU11652 on BRAF V600E mutant (A375, M481) and BRAF-WT (M405, M498) as well as B16BL6 and B16F10 melanoma cells. The indicated cell line was cultured in collagen matrix to create physiologically relevant 3D culture conditions. The drug treatment was applied for 72 h and the response quantified. Three types of signal were measured using three different markers: apoptosis (CellEvent Caspase 3/7), permeabilized cell nuclei (ethidium homodimer), and all nuclei (Hoechst 33342) using an epifliorescence microscope. Each well of a 96-well plate was imaged at three different locations, with a z-step size of 2 μm for 251 steps to cover the entire height at that location. […] To resolve overlaps, we used the following precedence: permeabilization indicates cell death thus overwrites both other channels; in the absence of permeabilization, apoptosis marker overrides the Hoechst nuclear stain. These absolute pixel counts signal were converted to a relative viability signal by calculating the ratio of ethidium homodimer plus apoptosis signal to the total nuclear stain signal. […]

[1] = test system: human peripheral blood mononuclear cells (PBMC); experiment: Viability of PBMC in suspension culture; type: cell-based
Procedure: The data was collected and plotted using the same methodology as FIG. 1. […] These cells were cultured in suspension in 24 well ultra-low adhesion dishes, seeded at 100,000 cells per well. After 72 h of SU11652 treatment, the cells were imaged and the images were quantified using CellProfiler V2.2. For both panels, since the highest dose administered was 10 μM, estimating IC50 above that dose is theoretical and thus unreliable so IC50>10 μM is indicated in those cases.
Human peripheral blood mononuclear cells (PBMC) were used to assess the impact of SU11652 on the viability of a collection of normal, healthy immune cells of the human body. Cells were isolated from the buffy coats obtained from healthy adult human blood. After culture in ultra-low adhesion dishes, the cells were treated with different doses of SU11652 for 72 hours.

murine splenocytes = experiment: Splenocyte viability by trypan blue staining; type: cell-based; details: anti-CD3, anti-CD28 stimulated, 2 and 3 days, all doses
Description: Murine splenocytes were stimulated with anti-CD3 and anti-CD28 in addition to the indicated SU11652 doses for 2 and 3 days. At indicated timepoints, splenocytes were counted and cell death was quantified by trypan blue staining using automated cell counter. Error bars represent standard error of means for N=3 mice per timepoint.
Murine splenocytes were stimulated with anti-CD3, anti-CD28, and murine recombinant IL-2 in addition to the indicated SU11652 doses for 2 and 3 days (FIG. 4). At the indicated timepoints, splenocytes were counted and cell death was quantified by trypan blue staining using an automated cell counter. Error bars represent the standard error of the mean (SEM) for N=3 mice per timepoint. VC=vehicle control.

[2] = test system: BRAF and MEK inhibitor resistant (BRAFr/MEKr) A375 cells; experiment: 3D viability dose response, BRAFr/MEKr A375; type: cell-based; details: A375 made resistant with Dabrafenib+Trametinib for approximately one month
Procedure: FIG. 7 panels A-D show the effect of SU11652 on BRAF and MEK inhibitor resistant (BRAFr/MEKr) melanoma cells. M481 and A375 cells were treated with 10 nM Dabrafenib+1 nM Trametinib (M481 and A375), or 100 nM Dabrafenib+10 nM Trametinib (M481 and A375) for approximately one month to make them resistant to the BRAF and MEK inhibitor (BRAFr/MEKr).

[3] = test system: RAC1^P29S knock-in A375 cell line; experiment: Cytotoxic and cytostatic activity, RAC1 P29S knock-in A375; type: cell-based; details: RAC1 P29S knock-in A375, addition of SU11652 to RMIC
Description: Two new cell lines were used to shed insight into the relationship between RAC1 signaling and SU11652 activity. The first cell line used was IGR1 which is RAC1^P29S. […] The second new cell line was a knock-in RAC1P29S variant of A375 which allows direct comparisons between RAC1^WT and RAC1P29s melanoma.

Structure (SMILES): CCN(CC)CCNC(=O)c1c(C)[nH]c(/C=C2\C(=O)Nc3ccc(Cl)cc32)c1C [SU11652, 5-[(Z)-(5-chloro-2-oxo-1,2-dihydro-3H-indol-3-ylidene)methyl]-N-[2-(diethylamino)ethyl]-2,4-dimethyl-1H-pyrrole-3-carboxamide]
- cytotoxic effect (viability ratio dose response) (B16BL6 melanoma cells): broadly cytotoxic to melanoma cells
- viability of PBMCs ([1]; 72 hours, ultra-low adhesion dishes): did not reduce the viability of PBMCs at the tested doses
- IC50 ([1]; Homo sapiens, PBMC, suspension, 72 h, highest dose administered 10 μM): > 10 µM
- splenocyte viability / cell death (murine splenocytes): splenocytes remained viable; also recorded: does not kill normal immune cells
- effect on viability of resistant cells [2]: worked effectively on BRAF- and MEK-inhibition resistant melanoma cells; also recorded: effective on these RAF/MEK dual inhibition resistant cells
- cytostatic activity [3]: caused both cytotoxic and cytostatic effect
- cytotoxic activity [3]: caused both cytotoxic and cytostatic effect
